# Experimental data reported in patent US20150031045A1, “MARKERS FOR DIAGNOSING AMYOTROPHIC LATERAL SCLEROSIS” (University Of Maryland, priority 2012, published 2015).
# “Also recorded” adds a separate entry of the source.
# Legend:
# CHOP = CHOP protein level in gastrocnemius muscle by western blot; assay type: in vivo, mice; details: 10 mg/kg ip daily; p<0.05 vs. ALS-Veh
# Method: Total protein was determined using a BCA protein assay kit (Thermo Scientific). Samples were then solubilized in loading buffer and denatured (5 min at 100° C.). For assessment of changes in protein expression levels, 15-30 μg total protein were loaded on bis-acrylamide gels and analyzed by polyacrylamide gel electrophoresis (PAGE). The amount of protein loaded for each endpoint was determined by separate analysis of the linear range for each antibody. Samples were then transferred to PVDF membrane (Millipore) and blocked with 5% (w/v) non-fat dry milk powder in Tris-buffered saline (pH 8.0) for 1 hr. […] Secondary antibodies were detected using HRP-linked chemiluminescence with SuperSignal West Dura Chemiluminescence Substrate (Thermo Scientific) and imaged using a chemiluminescence imaging system (GeneGnome, Syngene). The signal for the target protein of each sample was quantified and expressed in arbitrary unit (AU) and then values for each ALS and CON mouse expressed as a ratio relative to the first CON mouse (CON1) at each age. […]
# The response of skeletal muscle to the ER stress markers was also assessed in response to gingerol treatment, namely by examining the levels of the apoptotic factor CHOP.
# PERK = PERK protein level in gastrocnemius muscle by western blot; assay type: in vivo, mice; details: n=5
# Method: (§1) As described above in Examples 15-18, ALS mice administered 6-gingerol had improved muscle function, improved intracellular calcium clearance, increased SERCA1 protein levels, and decreased CHOP protein levels. To further examine the response of skeletal muscle to 6-gingerol treatment, the levels of ER stress proteins PERK, GRP78/BiP, PDI, and IRE1α were measured in the gastrocnemius muscle of control (CON) and G93A*SOD1 (ALS) mice treated with vehicle (Veh) or 6-gingerol (Gin). Specifically, the protein levels were measured by western blotting. Each group had five mice, i.e., CON (n=5), ALS-Veh (n=5), and ALS-Gin (n=5).
# G93A*SOD1 ALS mice [1] = test: Gastrocnemius muscle mass and muscle mass index; assay type: in vivo
# Method: (§2) The study used 12 mice. At 35 d, mice were assigned to treatment groups. The 3 groups in the study were: i) wild-type control mice treated with vehicle (CON-Veh; n=4; 3 female (F) and 1 male (M)); ii) G93A*SOD1 ALS mice treated with vehicle (ALS-Veh; n=4; 3 F and 1 M; and iii) G93A*SOD1 mice treated with 6-Gingerol (ALS-Gin; n=4; 3 F and 1 M). There were no 6-gingerol treated control mice due to cost of the drug.
# (§3) 6-gingerol was purchased from Carbosynth Limited, UK. Mice were dosed daily with intraperitoneal (ip) injection of vehicle (0.4% ethanol in PBS) or 6-gingerol at a dose of 10 mg/kg. Treatment began when mice were 35 d old and terminated at 115 d. The volume dosed was adjusted weekly according to changes in body weight.
# Specifically, muscle function was assessed using a grip test and a walking or stride test at the termination of the study. After conclusion of the grip function and stride function tests, the mice were then sacrificed and skeletal muscle tissues weighed to determine muscle mass.
# [2] = Body weight of G93A*SOD1 ALS mice treated with 6-gingerol; assay type: in vivo
# Method: as §2, §3
# In this study, mice were evaluated at an average age of 115±5 d (for CON-Veh, ALS-Veh and ALS-Gin), just prior to severe symptom onset. […] There was also a significant reduction in muscle mass in ALS vs. CON mice and a 21% improvement in muscle mass with 6-gingerol (CON-Veh: 0.111±0.015 g; ALS-Veh: 0.075±0.010 g; ALS-Gin 0.090±0.007 g) (FIG. 22, left panel, and Table 4).
# SERCA1 = SERCA1 protein level in gastrocnemius muscle by western blot; assay type: in vivo, mice; details: 10 mg/kg ip daily; levels nearing those in CON muscle; p<0.05 vs. ALS-Veh
# From the text: (§4) The superficial (SP) and deep (DP) portions of the gastrocnemius muscle (SP GAS and DP GAS, respectively) were used for analysis of Ca^2+ regulatory protein levels by western blot. Anatomically, the gastrocnemius muscle is composed of a lateral and medial head, with a similar mixture of fibres types in the two heads: lateral gastrocnemius is 69% fast glycolytic (FG), 30% fast oxidative and glycolytic (FOG) and 1% slow oxidative (SO) fibres and medial gastrocnemius is 55% FG, 32% FOG and 8% SO. The muscle was divided by superficial vs. deep portions due to their glycolytic (white) vs. oxidative (red) differences, respectively. […] Protein levels were determined using a BCA protein kit (Thermo Scientific). […] For assessment of changes in sarcoplasmic reticulum (SR)/endoplasmic reticulum (ER) Ca^2+ (SERCA) pump, SERCA1 and SERCA2 protein levels were measured. Specifically, 15 μg protein was loaded on 8% gels and analyzed by polyacrylamide gel electrophoresis (PAGE). Levels of parvalbumin (PV) were assessed by loading 2.5 μg protein on 15% gels. […] Level of each respective protein was quantified by chemiluminescence using SuperSignal West Dura Chemiluminescent Substrate (Thermo Scientific) and imaged using a chemiluminescence imaging system (GeneGnome, Syngene). Protein expression levels are expressed as Arbitrary Units (AU). […]
# GRP78/BiP = GRP78/BiP protein level in gastrocnemius muscle by western blot; assay type: in vivo, mice; details: n=5
# Method: as §1
# IRE1α = IRE1α protein level in gastrocnemius muscle by western blot; assay type: in vivo, mice; details: n=5
# Method: as §1
# G93A*SOD1 ALS mice [3] = test: Stride length test; assay type: in vivo; details: 10 mg/kg ip daily; p=0.13
# Method: as §2, §3
# Briefly, fore- and hind-limb paws are dipped in non-toxic paint and mice walk across a 120 cm table covered in white paper. A dark box with food is placed at the far end to encourage walking across the table. The distance between the fore- and hind-limb ink marks are then measured. Four strides per mouse are quantified and the average stride length determined
# SR Ca^2+ ATPase (SERCA) = test: Maximum Ca2+ ATPase activity in skeletal muscle homogenates; assay type: in vivo, mice; details: 10 mg/kg 6-gingerol for 10 weeks, p<0.05 vs. ALS-Veh
# Method: To further examine the effects of 6-gingerol treatment, maximum Ca^2+ ATPase activity was measured in control (CON) and G93A*SOD1 (ALS) mice treated with vehicle (Veh) or 6-gingerol (Gingerol). Specifically, ALS mice received 10 mg/kg 6-gingerol for 10 weeks. The vehicle was administered in parallel to the CON-Veh and ALS-Veh groups of mice.
# SR Ca^2+ ATPase (SERCA) activity in skeletal muscle homogenates obtained from the mice was then measured and the average data for all groups is shown in FIG. 31, in which CON (n=5), ALS-Veh (n=5), and ALS-Gin (n=5). In FIG. 31, *=p<0.05 vs. CON-Veh and #=p<0.05 vs. ALS-Veh.
# [4] = tested on: single muscle fibres from the flexor digitorum brevis (FDB) muscle; test: Intracellular Ca2+ handling (Fura-2) in single muscle fibres from treated mice; assay type: in vivo
# Method: For e-c coupling measurements, fibres were loaded with 1 μM Fura-2 AM in MEM/FBS media for 15 min at room temperature. Fura-2 AM media was then removed by quick centrifugation and fibres were resuspended in fresh MEM/FBS media. Fibres loaded with Fura-2 were placed in a culture/stimulation chamber (Cell MicroControls) containing parallel electrodes on top of a Nikon TiU microscope. Once in the chamber, fibres were continuously perfused with stimulating tyrode (121 mM NaCl, 5 mM KCl, 1.8 mM CaCl2, 0.5 mM MgCl2, 0.4 mM NaH2PO4, 24 mM NaHCO3, and 5.5 mM glucose) pH 7.3 when continuously bubbled with 95% O2/5% CO2 using a Gilson Minipuls 3 peristaltic pump and vacuum pump. Intracellular Ca^2+ levels were assessed by Fura-2 fluorescence ratio (ratio of excitation at 340 and 380 nm; emission at 510 nm) using the IonOptix Hyperswitch system, with the Hyperswitch enabling collection of ratiometric data at a frequency of 250 Hz. Ratios were converted to intracellular free Ca^2+ concentration ([Ca^2+]i). The Fura-2 ratio was calibrated in vivo using the Ca^2+ ionophore A23187 and 10 mM EGTA or 1 mM CaCl2, with Rmin and Rmax determined to be 0.33 and 3.50, respectively. The Kd for Ca^2+ for Fura-2 was 224 nM.
# Fura-2 loaded single fibres were stimulated using 350 ms tetani, 0.5 ms pulse duration at 10, 30, 50, 70 and 100, 120 and 150 Hz stimulation frequencies (S48 Square Pulse Stimulator, GRASS Technologies) with one minute rest between frequencies. All single fibre data was collected at room temperature (23 degrees Celsius). […]
# After conclusion of the grip function and stride function tests, mice were then sacrificed and single muscle fibres were obtained immediately from the flexor digitorum brevis (FDB) muscle and intracellular Ca^2+ handling assessed using Fura-2 as discussed above in Example 1. Changes in Fura-2 ratio, representing changes in [Ca^2+]i, were measured under resting conditions and in response to electrical stimulation at a range of physiological frequencies (10-150 Hz). […]
# SERCA2 = SERCA2 protein level in skeletal muscle by western blot; assay type: in vivo, mice; details: 10 mg/kg ip daily
# From the text: as §4
# G93A*SOD1 ALS mice [5] = test: Grip function test; assay type: in vivo; details: 10 mg/kg ip daily
# Method: as §2, §3
# Briefly, mice are placed on a metal grid (20 cm wide, 40 cm long; grid placed 40 cm above table) and allowed to grip with fore- and hind-limb paws prior to inverting the grid. Timing begins once the grid is inverted and stops once the mouse can no longer hold the lid.
# PDI = PDI protein level in gastrocnemius muscle by western blot; assay type: in vivo, mice; details: n=5
# Method: as §1
structure (smiles),measurement,setting,value
CCCCC[C@H](O)CC(=O)CCc1ccc(O)c(OC)c1 [6-gingerol],"CHOP protein level in skeletal muscle, ALS-Gin vs. ALS-Veh",CHOP,significantly attenuated
same,"PERK protein level, ALS-Gin compared to ALS-Veh",PERK,decreased
same,"Muscle mass index (mg muscle per g body weight), reduction in ALS",G93A*SOD1 ALS mice [1]; ALS-Gin vs. ALS-Veh,attenuated
same,Improvement in muscle mass with 6-gingerol,"G93A*SOD1 ALS mice [1]; ALS-Gin vs. ALS-Veh, 10 mg/kg ip daily",21%
same,Gastrocnemius muscle mass,"G93A*SOD1 ALS mice [1]; ALS-Gin, 10 mg/kg ip daily 35-115 d, CON-Veh 0.111±0.015, ALS-Veh 0.075±0.010",0.090 ± 0.007 g
same,Effect of 6-gingerol on body weight,"[2]; ALS-Gin vs. ALS-Veh, 10 mg/kg ip daily, 10 mg/kg",no significant improvement
same,Body weight,"[2]; ALS-Gin: G93A*SOD1 mice, 10 mg/kg ip daily from 35 d, evaluated at 115±5 d, CON-Veh 21.0±2.7, ALS-Veh 17.8±1.4",18.2 ± 0.7 g
same,"SERCA1 protein level in gastrocnemius muscle, ALS-Gin compared to ALS-Veh",SERCA1,dramatic increase
same,"GRP78/BiP protein level, ALS-Gin compared to ALS-Veh",GRP78/BiP,decreased
same,"IRE1α protein level, ALS-Gin compared to ALS-Veh",IRE1α,decreased
same,"Stride length, difference ALS-Gin vs. ALS-Veh",G93A*SOD1 ALS mice [3],tendency to improve; also recorded: did not reach statistical significance
same,"Ca^2+ ATPase maximum activity (SERCA activity), ALS-Gin relative to ALS-Veh",SR Ca^2+ ATPase (SERCA),increased; also recorded: restored Ca^2+ ATPase maximum activity
same,Effect of 6-gingerol on peak Fura-2 ratio (10 Hz),[4]; ALS-Gin vs. ALS-Veh,no attenuation; also recorded: no improvement
same,"Ca^2+ decay time, ALS-Gin vs. ALS-Veh","[4]; single FDB fibres, after 50 and 100 Hz tetani, p<0.11",tendency for improvement; also recorded: trend for single fibres from ALS-Gin to have a faster decay time
same,"Resting Fura-2 ratio, ALS-Gin vs. ALS-Veh","[4]; single FDB fibres, p=0.13",lower but did not reach statistical significance; also recorded: tendency for Fura-2 ratio to be lower
same,"SERCA2 protein level, rescue of the decrease with 6-gingerol treatment",SERCA2,minimal rescue
same,"Grip test time, difference ALS-Gin vs. ALS-Veh",G93A*SOD1 ALS mice [5]; p<0.10,did not reach significance
same,"Grip function, % of CON-Veh level","G93A*SOD1 ALS mice [5]; ALS-Gin, ALS-Veh 17% of CON-Veh, p=0.08",42%
same,"PDI protein level, ALS-Gin compared to ALS-Veh",PDI,decreased
